Results as given in BindingDB's records for doi:10.1016/S0960-894X(96)00563-X (1996).
pIC50: −log10 of the molar value.

Target: Tachykinin NK1 receptor (Bos taurus)
Assay: Binding affinity against NK1 receptor by displacement of [3H]SP from bovine retina membranes

In order of rising pIC50:
1. Cc1cc(C)cc(C(=O)N2CC[C@H](NCc3ccnc4ccccc34)C[C@H]2Cc2ccc(Cl)cc2Cl)c1 [{(2R,4S)-2-(2,4-Dichloro-benzyl)-4-[(quinolin-4-ylmethyl)-amino]-piperidin-1-yl}-(3,5-dimethyl-phenyl)-methanone]  6.22
2. Cc1cc(C)cc(C(=O)N2CC[C@H](NCc3ccnc4ccccc34)C[C@H]2CCc2ccccc2)c1 [(3,5-Dimethyl-phenyl)-{(2R,4S)-2-phenethyl-4-[(quinolin-4-ylmethyl)-amino]-piperidin-1-yl}-methanone]  6.72
3. Cc1cc(C)cc(C(=O)N2CC[C@H](NCc3ccnc4ccccc34)C[C@H]2Cc2ccc(C(N)=O)cc2)c1 [4-{(2R,4S)-1-(3,5-Dimethyl-benzoyl)-4-[(quinolin-4-ylmethyl)-amino]-piperidin-2-ylmethyl}-benzamide]  7.00
4. Cc1cc(C)cc(C(=O)N2CC[C@H](NCc3ccnc4ccccc34)C[C@H]2Cc2cc(Br)cc(Br)c2)c1 [{(2R,4S)-2-(3,5-Dibromo-benzyl)-4-[(quinolin-4-ylmethyl)-amino]-piperidin-1-yl}-(3,5-dimethyl-phenyl)-methanone]  7.28
5. COc1cccc(C[C@@H]2C[C@@H](NCc3ccnc4ccccc34)CCN2C(=O)c2cc(C)cc(C)c2)c1 [(3,5-Dimethyl-phenyl)-{(2R,4S)-2-(3-methoxy-benzyl)-4-[(quinolin-4-ylmethyl)-amino]-piperidin-1-yl}-methanone]  7.57
6. Cc1cc(C)cc(C(=O)N2CC[C@H](NCc3ccnc4ccccc34)C[C@H]2Cc2ccc(C#N)cc2)c1 [4-{(2R,4S)-1-(3,5-Dimethyl-benzoyl)-4-[(quinolin-4-ylmethyl)-amino]-piperidin-2-ylmethyl}-benzonitrile]  7.68
7. COc1ccc(C[C@@H]2C[C@@H](NCc3ccnc4ccccc34)CCN2C(=O)c2cc(C)cc(C)c2)cc1 [(3,5-Dimethyl-phenyl)-{(2R,4S)-2-(4-methoxy-benzyl)-4-[(quinolin-4-ylmethyl)-amino]-piperidin-1-yl}-methanone]  7.85
8. Cc1cc(C)cc(C(=O)N2CC[C@H](NCc3ccnc4ccccc34)C[C@H]2Cc2ccc3ccccc3c2)c1 [(3,5-Dimethyl-phenyl)-{(2R,4S)-2-naphthalen-2-ylmethyl-4-[(quinolin-4-ylmethyl)-amino]-piperidin-1-yl}-methanone]  7.85
9. Cc1cc(C)cc(C(=O)N2CC[C@H](NCc3ccnc4ccccc34)C[C@H]2Cc2ccc(Cl)cc2)c1 [{(2R,4S)-2-(4-Chloro-benzyl)-4-[(quinolin-4-ylmethyl)-amino]-piperidin-1-yl}-(3,5-dimethyl-phenyl)-methanone]  7.89
10. Cc1cc(C)cc(C(=O)N2CC[C@H](NCc3ccnc4ccccc34)C[C@H]2Cc2ccc(C(F)(F)F)cc2)c1 [(3,5-Dimethyl-phenyl)-[(2R,4S)-4-[(quinolin-4-ylmethyl)-amino]-2-(4-trifluoromethyl-benzyl)-piperidin-1-yl]-methanone]  7.96
11. Cc1cc(C)cc(C(=O)N2CC[C@H](NCc3ccnc4ccccc34)C[C@H]2Cc2ccc(Cl)c(Cl)c2)c1 [{(2R,4S)-2-(3,4-Dichloro-benzyl)-4-[(quinolin-4-ylmethyl)-amino]-piperidin-1-yl}-(3,5-dimethyl-phenyl)-methanone]  8.05
12. Cc1cc(C)cc(C(=O)N2CC[C@H](NCc3ccnc4ccccc34)C[C@H]2Cc2ccc([N+](=O)[O-])cc2)c1 [(3,5-Dimethyl-phenyl)-{(2R,4S)-2-(4-nitro-benzyl)-4-[(quinolin-4-ylmethyl)-amino]-piperidin-1-yl}-methanone]  8.52
